Source: the supplement of paper PMC10307832

Key:
Test in all cases: relative viability (nuclei count vs DMSO), 5 days (fraction); higher = more cells survive
[1] = tested on: NCI-H2228
Summary of the method: (§1)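 Five library-drug doses in √10 steps were combined with a fixed anchor-drug dose, or a single drug was given alone, by pin tool to lung cancer cell lines in 1536-well plates the day after seeding. Nuclei were stained and counted after 5 days. Relative viability is the nuclei count in treated wells over that in vehicle wells, taken as the median of duplicate plates.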

[2] = tested on: NCI-H322M
Summary of the method: as §1

[3] = tested on: NCI-H1651
Summary of the method: as §1

[4] = tested on: NCI-H1355
Summary of the method: as §1

[5] = tested on: SW 1573
Summary of the method: as §1

[6] = tested on: NCI-H1437
Summary of the method: as §1

[7] = tested on: EKVX
Summary of the method: as §1

[8] = tested on: CAL-12T
Summary of the method: as §1

[9] = tested on: SK-MES-1
Summary of the method: as §1

[10] = tested on: HCC-827
Summary of the method: as §1

[11] = tested on: LK-2
Summary of the method: as §1

[12] = tested on: NCI-H1734
Summary of the method: as §1

[13] = tested on: NCI-H520
Summary of the method: as §1

[14] = tested on: COR-L23
Summary of the method: as §1

[15] = tested on: NCI-H661
Summary of the method: as §1

[16] = tested on: PC-3 [JPC-3]
Summary of the method: as §1

[17] = tested on: H3255
Summary of the method: as §1

[18] = tested on: HCC-15
Summary of the method: as §1

[19] = tested on: PC-14
Summary of the method: as §1

[20] = tested on: RERF-LC-KJ
Summary of the method: as §1

[21] = tested on: NCI-H1650
Summary of the method: as §1

[22] = tested on: NCI-H2405
Summary of the method: as §1

Molecule `Clc1ccc(Nc2nnc(Cc3ccncc3)c3ccccc23)cc1` [Vatalanib] + CC(=O)Nc1cccc(-n2c(=O)n(C3CC3)c(=O)c3c(Nc4ccc(I)cc4F)n(C)c(=O)c(C)c32)c1 [Trametinib] (partner 0.02 µM) has a relative viability ([1]; first compound 0.04 µM) of 0.542, a relative viability ([1]; first compound 0.1265 µM) of 0.467 and a relative viability ([1]; first compound 0.4 µM) of 0.666. The relative viability ([1]; first compound 1.265 µM) was 0.782, the relative viability ([1]; first compound 4 µM) was 0.44 and the relative viability ([2]; first compound 0.04 µM) was 0.416. The relative viability ([2]; first compound 0.1265 µM) was 0.51, the relative viability ([2]; first compound 0.4 µM) was 0.552 and the relative viability ([2]; first compound 4 µM) was 0.517. For the same molecule, the relative viability ([3]; first compound 0.04 µM) was 0.802, the relative viability ([3]; first compound 0.1265 µM) was 0.778 and the relative viability ([3]; first compound 0.4 µM) was 0.779. The relative viability ([3]; first compound 1.265 µM) was 0.742, the relative viability ([3]; first compound 4 µM) was 0.809 and the relative viability ([4]; first compound 0.04 µM) was 0.443. For the same molecule, the relative viability ([4]; first compound 0.1265 µM) was 0.383, the relative viability ([4]; first compound 0.4 µM) was 0.461 and the relative viability ([4]; first compound 1.265 µM) was 0.404. For the same molecule, the relative viability ([4]; first compound 4 µM) was 0.428, the relative viability ([5]; first compound 0.1265 µM) was 0.569 and the relative viability ([5]; first compound 0.4 µM) was 0.607. The relative viability ([5]; first compound 1.265 µM) was 0.58, the relative viability ([5]; first compound 4 µM) was 0.564 and the relative viability ([6]; first compound 0.04 µM) was 0.571. It also gave a relative viability ([6]; first compound 0.1265 µM) of 0.499, a relative viability ([6]; first compound 0.4 µM) of 0.554 and a relative viability ([6]; first compound 1.265 µM) of 0.451. The relative viability ([6]; first compound 4 µM) was 0.486, the relative viability ([7]; first compound 0.04 µM) was 0.274 and the relative viability ([7]; first compound 0.1265 µM) was 0.409. The relative viability ([7]; first compound 0.4 µM) was 0.308, the relative viability ([7]; first compound 1.265 µM) was 0.351 and the relative viability ([7]; first compound 4 µM) was 0.39. It also gave a relative viability ([8]; first compound 0.04 µM) of 0.366, a relative viability ([8]; first compound 0.1265 µM) of 0.296 and a relative viability ([8]; first compound 0.4 µM) of 0.368. It also gave a relative viability ([8]; first compound 1.265 µM) of 0.366, a relative viability ([8]; first compound 4 µM) of 0.298 and a relative viability ([9]; first compound 0.04 µM) of 0.507. It also gave a relative viability ([9]; first compound 0.1265 µM) of 0.503, a relative viability ([9]; first compound 0.4 µM) of 0.573 and a relative viability ([9]; first compound 1.265 µM) of 0.548. It also gave a relative viability ([9]; first compound 4 µM) of 0.507, a relative viability ([10]; first compound 0.04 µM) of 0.519 and a relative viability ([10]; first compound 0.1265 µM) of 0.578. The relative viability ([10]; first compound 1.265 µM) was 0.52, the relative viability ([10]; first compound 4 µM) was 0.522 and the relative viability ([11]; first compound 0.04 µM) was 0.677. It also gave a relative viability ([11]; first compound 0.1265 µM) of 0.682, a relative viability ([11]; first compound 0.4 µM) of 0.774 and a relative viability ([11]; first compound 1.265 µM) of 0.876. The relative viability ([11]; first compound 4 µM) was 0.667, the relative viability ([12]; first compound 0.04 µM) was 0.731 and the relative viability ([12]; first compound 0.1265 µM) was 0.673. For the same molecule, the relative viability ([12]; first compound 0.4 µM) was 0.705, the relative viability ([12]; first compound 1.265 µM) was 0.655 and the relative viability ([12]; first compound 4 µM) was 0.684. It also gave a relative viability ([13]; first compound 0.04 µM) of 0.794, a relative viability ([13]; first compound 0.1265 µM) of 0.654 and a relative viability ([13]; first compound 0.4 µM) of 0.766. It also gave a relative viability ([13]; first compound 1.265 µM) of 0.615, a relative viability ([13]; first compound 4 µM) of 0.602 and a relative viability ([14]; first compound 0.04 µM) of 0.606. The relative viability ([14]; first compound 0.1265 µM) was 0.587, the relative viability ([14]; first compound 0.4 µM) was 0.721 and the relative viability ([14]; first compound 1.265 µM) was 0.578. For the same molecule, the relative viability ([14]; first compound 4 µM) was 0.534, the relative viability ([15]; first compound 0.04 µM) was 0.636 and the relative viability ([15]; first compound 0.1265 µM) was 0.533. For the same molecule, the relative viability ([15]; first compound 0.4 µM) was 0.689, the relative viability ([15]; first compound 1.265 µM) was 0.59 and the relative viability ([15]; first compound 4 µM) was 0.574. The relative viability ([16]; first compound 0.04 µM) was 0.78, the relative viability ([16]; first compound 0.1265 µM) was 0.675 and the relative viability ([16]; first compound 0.4 µM) was 0.547. It also gave a relative viability ([16]; first compound 1.265 µM) of 0.619, a relative viability ([16]; first compound 4 µM) of 0.646 and a relative viability ([17]; first compound 0.04 µM) of 0.563. It also gave a relative viability ([17]; first compound 0.1265 µM) of 0.606, a relative viability ([17]; first compound 0.4 µM) of 0.57 and a relative viability ([17]; first compound 1.265 µM) of 0.583. For the same molecule, the relative viability ([17]; first compound 4 µM) was 0.58, the relative viability ([18]; first compound 0.04 µM) was 0.392 and the relative viability ([18]; first compound 0.1265 µM) was 0.412. It also gave a relative viability ([18]; first compound 0.4 µM) of 0.404, a relative viability ([18]; first compound 1.265 µM) of 0.365 and a relative viability ([18]; first compound 4 µM) of 0.365. The relative viability ([19]; first compound 0.04 µM) was 0.671, the relative viability ([19]; first compound 0.1265 µM) was 0.826 and the relative viability ([19]; first compound 0.4 µM) was 0.991. It also gave a relative viability ([19]; first compound 1.265 µM) of 0.738, a relative viability ([19]; first compound 4 µM) of 0.6 and a relative viability ([20]; first compound 0.04 µM) of 0.931. It also gave a relative viability ([20]; first compound 0.1265 µM) of 0.867, a relative viability ([20]; first compound 0.4 µM) of 0.903 and a relative viability ([20]; first compound 1.265 µM) of 0.791. The relative viability ([20]; first compound 4 µM) was 0.782, the relative viability ([21]; first compound 0.04 µM) was 0.598 and the relative viability ([21]; first compound 0.1265 µM) was 0.532. It also gave a relative viability ([21]; first compound 0.4 µM) of 0.306, a relative viability ([21]; first compound 1.265 µM) of 0.656 and a relative viability ([21]; first compound 4 µM) of 0.508. For the same molecule, the relative viability ([22]; first compound 0.04 µM) was 0.696, the relative viability ([22]; first compound 0.1265 µM) was 0.568 and the relative viability ([22]; first compound 0.4 µM) was 0.683. For the same molecule, the relative viability ([22]; first compound 4 µM) was 0.557.
